This is an account of results in article PMC9147645, “Food-Derived β-Carboline Alkaloids Ameliorate Lipid Droplet Accumulation in Human Hepatocytes” (Pharmaceuticals, 2022).

The test system of data set [1] is HepG2 cells. As to the kind of experiment: Accumulated triacylglycerol species by LC-MS/MS in oleic acid-loaded cells. The settings on record: for Number of accumulated triacylglycerol molecular species inhibited: 24 h of treatment; for inhibition at 200 µM: Homo sapiens, HepG2, 24 h. The format is cell-based, human. Here is the method: Tested compounds (200 μM) were added to cultured HepG2 cells loaded with oleic acid and incubated at 37 °C for 24 h, as previously described. Centrifuged samples were analyzed using an LC/MS orbitrap. Chromatographic separation was performed using a Shimadzu Prominence UHPLC system with a binary solvent delivery system and a standard auto-sampler. An Atlantis® T3 column (2.1 × 150 mm, 3 μm, Waters) was used for separation, with a flow rate of 200 μL/min. The mobile phase consisted of A: 10 mM ammonium acetate solution; B: isopropanol; and C: methanol. Positive mode: 0–1 min, 6% B and 90% C; 1–10 min, 83% B and 15% C; 10–19 min, 83% B and 15% C; 19–19.5 min, 6% B and 90% C; 19.5–22 min, 6% B and 90% C. The injection volume was 10 μL. The column temperature was maintained at 40 °C. The LC/MS parameters were as previously described.

Data set [2] relates to adipose triglyceride lipase (ATGL). Briefly: Gene expression, real-time PCR. The format is cell-based, human. To be noted: HepG2 + 0.25 mM OA, 200 and 400 μM compound, 24 h, normalized to GAPDH. How it is done:
(§1) To better understand how the supplementation of compounds 2 and 4 during LDA in HepG2 cells affects lipolysis and lipogenesis, we performed gene expression analysis using real-time PCR under the following conditions. Briefly, HepG2 cells (2.0 × 10^5/well) were seeded in 24-well plates (n = 6 per treatment). After 24 h, the cells were treated with PBS, 0.25 mM OA only, 0.25 mM OA plus 200 and 400 μM compound 2, or 0.25 mM OA plus 200 and 400 μM compound 4. After another 24 h, RNA extraction and complementary DNA synthesis were performed, according to the manufacturer’s instructions and a previous study. The sequences of the primers used are shown in the Supplementary Materials, Table S1: adipose triglyceride lipase (ATGL), diacylglycerol O-acyltransferase 1 (DGAT1), sterol regulatory element-binding protein 1 (SREBP1), fatty acid synthase (FASN), stearoyl-CoA desaturase 1 (SCD1), and glyceraldehyde-3-phosphate dehydrogenase (GAPDH). PCR was performed using a CFX 96 Real-Time PCR Detection System (Bio-Rad Laboratories Inc., Hercules, CA, USA) under the following conditions: 95 °C for 30 s, followed by 40 cycles at 95 °C for 5 s, 60 °C for 5 s, and 72 °C for 10 s. All gene expression levels were analyzed using the ΔΔCt method and normalized to GAPDH. Data were represented as relative expression based on that of the control group.
A general note: In qPCR the cycle at which signal appears reflects the starting amount.

The test system of data set [3] is diacylglycerol O-acyltransferase 1 (DGAT1). As to the kind of experiment: Gene expression, real-time PCR. The format is cell-based, human. The settings on record: HepG2 + 0.25 mM OA, 200 and 400 μM compound, 24 h, normalized to GAPDH. How it is done:
as §1

For data set [4], the system named is fatty acid synthase (FASN). As to the kind of experiment: Gene expression, real-time PCR. The data set is classed as cell-based, human. The settings on record: HepG2 + 0.25 mM OA, 200 and 400 μM compound, 24 h, normalized to GAPDH. Here is the method:
as §1

The test system of data set [5] is stearoyl-CoA desaturase 1 (SCD1). As to the kind of experiment: Gene expression, real-time PCR. The format is cell-based, human. To be noted: HepG2 + 0.25 mM OA, 200 and 400 μM compound, 24 h, normalized to GAPDH. How it is done: as §1
Data set [6] concerns sterol regulatory element-binding protein 1 (SREBP1). As to the kind of experiment: Gene expression, real-time PCR. The format is cell-based, human. The settings on record: HepG2 + 0.25 mM OA, 200 and 400 μM compound, 24 h, normalized to GAPDH. How it is done: as §1
For data set [7], the system named is HepG2 cells. Briefly: Real-time LDAI monitoring (live imaging). The data set is classed as cell-based, human. To be noted: HepG2 in DMEM with oleic acid, within 20 h. How it is done: Real-time LDAI monitoring: Morphological changes in HepG2 cells and LDs induced by treatment with 4 were monitored using a Nikon, Hamamatsu Photonics/Ti-E, CCD Camera for 20 h. The cell viability of the control cells was examined by staining with acridine orange (AO)/ethidium bromide (EB) dyes at the end of the experiment (20 h) (Supplementary Materials, Figure S12).

For data set [8], the system named is cultured human hepatocytes (C3A). Details: method as in earlier work. The settings on record: ref "We have reported"; cited from earlier work.
For data set [9], the system named is nuclear factor erythroid 2-related factor 2 (Nrf2). The settings on record: hepatocytes; ref "We have reported"; cited from earlier work.
Setting [10] is: 24 h, HepG2 + OA, vs control (+OA), read-out: Inhibition of accumulated TAG 48:4.
Setting [11] is: 24 h, HepG2 + OA, vs control (+OA), read-out: Inhibition of accumulated TAG 50:3.
[12] abbreviates: 24 h, HepG2 + OA, vs control (+OA), read-out: Inhibition of accumulated TAG 50:5.
The mark [13] stands for this setting: 24 h, HepG2 + OA, vs control (+OA), read-out: Inhibition of accumulated TAG 52:4.
The mark [14] stands for this setting: 24 h, HepG2 + OA, vs control (+OA), read-out: Inhibition of accumulated TAG 52:5.
[15] abbreviates: 24 h, HepG2 + OA, vs control (+OA), read-out: Inhibition of accumulated TAG 52:6.
Where [16] appears, read: 24 h, HepG2 + OA, vs control (+OA), read-out: Inhibition of accumulated TAG 52.7.
Where [17] appears, read: 24 h, HepG2 + OA, vs control (+OA), read-out: Inhibition of accumulated TAG 54:7.
The mark [18] stands for this setting: 24 h, HepG2 + OA, vs control (+OA), read-out: Inhibition of accumulated TAG 56.9.

SMILES strings stand for the structures. Like-named read-outs stand apart in the source and are kept apart here.

On to `O=C(O)c1cc2c([nH]c3ccccc32)c(-c2ccc(CO)o2)n1` [Compound 4, flazin], for which the “Inhibition of TAGs 52:6; 52:7; 56:10; 56:9; and 62:4 (in words)” value in the data set on HepG2 cells [1] (200 μM, 24 h, HepG2 + OA) is reported as “total inhibition”. Also, in the data set on HepG2 cells [1] (200 μM, HepG2 + OA), the “Number of accumulated triacylglycerol molecular species inhibited” value is “twenty”. The inhibition at 200 µM was determined as 28.9% with HepG2 cells [1] (24 h, HepG2 + OA, vs control (+OA), read-out: Inhibition of accumulated TAG 46:3); 39% with HepG2 cells [1] (setting [10]); 49.4% in the data set on HepG2 cells [1] (setting [11]); 72.5% with HepG2 cells [1] (setting [12]); 51.2% in the data set with HepG2 cells [1] (setting [13]); 49.1% in the data set with HepG2 cells [1] (setting [14]). For the same compound, the inhibition at 200 µM was 65.7% in the data set with HepG2 cells [1] (setting [15]); 70.7% with HepG2 cells [1] (setting [16]); 49.4% in the data set with HepG2 cells [1] (24 h, HepG2 + OA, vs control (+OA), read-out: Inhibition of accumulated TAG 54:6); 66.3% in the data set with HepG2 cells [1] (setting [17]); 49.1% in the data set with HepG2 cells [1] (24 h, HepG2 + OA, vs control (+OA), read-out: Inhibition of accumulated TAG 56:7); 58.1% in the data set on HepG2 cells [1] (24 h, HepG2 + OA, vs control (+OA), read-out: Inhibition of accumulated TAG 56:8). Moreover, the inhibition at 200 µM with HepG2 cells [1] (setting [18]) came to 71.4%; in the data set with HepG2 cells [1] (24 h, HepG2 + OA, vs control (+OA), read-out: Inhibition of accumulated TAG 58:11), 65.2%; in the data set with HepG2 cells [1] (24 h, HepG2 + OA, vs control (+OA), read-out: Inhibition of accumulated TAG 60:12) it was 66.4%; with HepG2 cells [1] (24 h, HepG2 + OA, vs control (+OA), read-out: Inhibition of accumulated TAG 62:14), 76.4%. For the same compound, the ATGL gene expression result in data set [2] is reported as “upregulated”. For the same compound, the DGAT1 gene expression entry in data set [3] was “no change”. Also, the FASN gene expression entry in [4] was “strongly downregulated”. The SCD1 gene expression result in data set [5] is given as “strongly downregulated”. In data set [6], the SREBP1 gene expression entry is “strongly downregulated”. Also, the “Accumulated neutral LDs in real-time imaging” value in the data set on HepG2 cells [7] is “significantly reduced in number”. Moreover, the Cytotoxicity entry in data set [8] is reported as “without showing any significant cytotoxicity”. In data set [8], the “Protection from oxidative damage by AAPH” value was “protects”. Moreover, the Nrf2 activation result in data set [9] is reported as “activated”.
On to `O=C(O)C1Cc2c([nH]c3ccccc23)C(c2ccc(CO)o2)N1` (stereo not drawn) [Compound 2, 1,2,3,4-tetrahydro-1-(5-(hydroxymethyl)-2-furanyl)-9H-pyrido [3,4-b]indole-3-carboxylic acid], for which the “Number of accumulated triacylglycerol molecular species inhibited” value with HepG2 cells [1] (200 μM, HepG2 + OA) was “twenty-five”. Besides, the inhibition at 200 µM was 23.4% with HepG2 cells [1] (setting [10]); 26.6% in the data set with HepG2 cells [1] (setting [11]); 33.7% in the data set with HepG2 cells [1] (setting [12]); 28.1% in the data set on HepG2 cells [1] (setting [13]); 9.5% in the data set with HepG2 cells [1] (setting [14]); 33.4% in the data set with HepG2 cells [1] (setting [15]). Besides, the inhibition at 200 µM is 35.1% with HepG2 cells [1] (setting [16]); 30% in the data set with HepG2 cells [1] (setting [17]); 45.9% with HepG2 cells [1] (24 h, HepG2 + OA, vs control (+OA), read-out: Inhibition of accumulated TAG 56:10); 28.3% in the data set on HepG2 cells [1] (setting [18]); 50 to 74% in the data set on HepG2 cells [1] (24 h, HepG2 + OA, vs control (+OA), read-out: Inhibition of accumulated TAG 58:12); 25 to 49% with HepG2 cells [1] (24 h, except TAGs 58:12, 46:3, 54:6, and 56:7, read-out: Inhibition of most of the accumulated triacylglycerol molecular species). Further, in data set [2], the ATGL gene expression result is given as “upregulated”. In addition, the DGAT1 gene expression result in data set [3] is listed as “no change”. Moreover, the FASN gene expression entry in data set [4] was “significantly downregulated”. In data set [5], the SCD1 gene expression entry is “did not induce a significant reduction”. In addition, the SREBP1 gene expression entry in [6] is listed as “significantly downregulated”.

In general, inhibition refers to how much of the control response was suppressed.
